Broadly, the MIC is the lowest concentration that inhibits growth of the organism.

Series [1] relates to Candida albicans. Briefly: Antifungal activity against Candida albicans after 24 hrs by microbroth dilution method. It counts as functional. On the technique in general: Broth dilution looks for growth in wells or tubes with falling amounts of substance.
The test system of series [2] is Candida albicans. In words: Antifungal activity against Candida albicans NR-29434 after 24 hrs by microbroth dilution method. The note with it: NR-29434, 24 h. It counts as functional.
Series [3] has as its system Cryptococcus neoformans. In words: Antifungal activity against Cryptococcus neoformans NR-41299 after 24 hrs by microbroth dilution method. The note with it: NR-41299, 24 h. In kind it is functional.
Series [4] concerns Cryptococcus neoformans. In words: Antifungal activity against Cryptococcus neoformans NR-41295 after 24 hrs by microbroth dilution method. It counts as functional. The note with it: NR-41295, 24 h.
Series [5] has as its system Candida albicans. Briefly: Antifungal activity against Candida albicans NR-29444 after 24 hrs by microbroth dilution method. In kind it is functional. The note with it: NR-29444, 24 h.
In series [6] the test system is Cryptococcus neoformans. In words: Antifungal activity against Cryptococcus neoformans NR-41294 after 24 hrs by microbroth dilution method. The note with it: NR-41294, 24 h. It counts as functional.
The subject of series [7] is Candida albicans. In words: Antifungal activity against Candida albicans NR-29438 after 24 hrs by microbroth dilution method. In kind it is functional. The note with it: NR-29438, 24 h.
For series [8], the system named is Cryptococcus neoformans. In words: Antifungal activity against Cryptococcus neoformans NR-41291 after 24 hrs by microbroth dilution method. In kind it is functional. The note with it: NR-41291, 24 h.
Series [9] has as its system Candida albicans. In words: Antifungal activity against Candida albicans NR-29440 after 24 hrs by microbroth dilution method. In kind it is functional. The note with it: NR-29440, 24 h.
The subject of series [10] is Cryptococcus neoformans. Briefly: Antifungal activity against Cryptococcus neoformans NR-41292 after 24 hrs by microbroth dilution method. It counts as functional. The note with it: NR-41292, 24 h.
The test system of series [11] is HCT-116. In words: Cytotoxicity against human HCT116 cells assessed as reduction in cell viability up to 4 ug/ml after 24 hrs by MTS assay. In kind it is cell-based. The note with it: hct-116, 24 h. (In general: Tetrazolium assays rely on reduction of a dye to a coloured formazan, in cell work by metabolically active cells.)
Series [12] has as its system Candida albicans. Briefly: Antifungal activity against Candida albicans NR-29367 after 24 hrs by microbroth dilution method. It counts as functional. The note with it: NR-29367, 24 h.
Series [13] relates to Candida albicans. Briefly: Antifungal activity against Candida albicans NR-29435 after 24 hrs by microbroth dilution method. It counts as functional. The note with it: NR-29435, 24 h.
Series [14] relates to Candida albicans. Briefly: Antifungal activity against Candida albicans NR-29441 after 24 hrs by microbroth dilution method. In kind it is functional. The note with it: NR-29441, 24 h.
Series [15] concerns Candida parapsilosis. Briefly: Antifungal activity against Candida parapsilosis ATCC 22019 after 24 hrs by microbroth dilution method. The note with it: Lodderomyces parapsilosis, ATCC 22019, 24 h. In kind it is functional.
The test system of series [16] is HCT-116. In words: Cytotoxicity against human HCT116 cells assessed as reduction in cell viability at 32 to 128 ug/ml after 24 hrs by MTS assay. It counts as cell-based. The note with it: hct-116, 24 h.
In series [17] the test system is Candida albicans. Briefly: Antibiofilm activity against 48 hrs old pre-formed biofilms of Candida albicans ATCC 10231 at 128 ug/ml after 24 hrs by MTS assay relative to control. It counts as functional.
Series [18] has as its system Nakaseomyces glabratus. Briefly: Antifungal activity against Candida glabrata ATCC 90030 after 24 hrs by microbroth dilution method. It counts as functional. The note with it: ATCC 90030, 24 h.
Series [19] deals with Candida albicans. Briefly: Antifungal activity against Candida albicans NR-29439 after 24 hrs by microbroth dilution method. In kind it is functional. The note with it: NR-29439, 24 h.
Series [20] concerns Cryptococcus neoformans. Briefly: Antifungal activity against Cryptococcus neoformans NR-41297 after 24 hrs by microbroth dilution method. The note with it: NR-41297, 24 h. In kind it is functional.
Series [21] deals with Cryptococcus neoformans. Briefly: Antifungal activity against Cryptococcus neoformans NR-41298 after 24 hrs by microbroth dilution method. It counts as functional. The note with it: NR-41298, 24 h.
Series [22] concerns Candida albicans. In words: Antifungal activity against Candida albicans […] after 24 hrs by microbroth dilution method. It counts as functional.
Series [23] relates to Candida albicans. Briefly: Antifungal activity against Candida albicans NR-29366 after 24 hrs by microbroth dilution method. In kind it is functional. The note with it: NR-29366, 24 h.
The subject of series [24] is Candida albicans. In words: Antifungal activity against Candida albicans NR-29442 after 24 hrs by microbroth dilution method. In kind it is functional. The note with it: NR-29442, 24 h.
Series [25] concerns Candida albicans. Briefly: Antifungal activity against Candida albicans ATCC 10231 after 24 hrs by microbroth dilution method. In kind it is functional. The note with it: ATCC 10231, 24 h.
The test system of series [26] is Candida albicans. Briefly: Antibiofilm activity against 48 hrs old pre-formed biofilms of Candida albicans ATCC 10231 at 32 ug/ml after 24 hrs by MTS assay relative to control. In kind it is functional.
Series [27] relates to Candida albicans. In words: Antibiofilm activity against 48 hrs old pre-formed biofilms of Candida albicans ATCC 10231 at 16 ug/ml after 24 hrs by MTS assay relative to control. In kind it is functional.
Series [28] concerns Candida albicans. Briefly: Antifungal activity against Candida albicans NR-29448 after 24 hrs by microbroth dilution method. It counts as functional. The note with it: NR-29448, 24 h.
Series [29] concerns Cryptococcus neoformans. In words: Antifungal activity against Cryptococcus neoformans NR-41296 after 24 hrs by microbroth dilution method. The note with it: NR-41296, 24 h. In kind it is functional.
Series [30] has as its system Candida albicans. In words: Antifungal activity against Candida albicans NR-29437 after 24 hrs by microbroth dilution method. It counts as functional. The note with it: NR-29437, 24 h.
Series [31] relates to Candida albicans. In words: Antifungal activity against Candida albicans NR-29449 after 24 hrs by microbroth dilution method. It counts as functional. The note with it: NR-29449, 24 h.
Series [32] relates to Candida albicans. Briefly: Antifungal activity against Candida albicans NR-29446 after 24 hrs by microbroth dilution method. The note with it: NR-29446, 24 h. It counts as functional.

≈ marks a conversion by molar mass, not a printed value. Some results are limits rather than exact numbers.

Molecule `COc1cccc2cc3c(nc12)-c1nc2ccccc2n1C3` displayed an MIC in series [1] of 64 µg/mL (≈ 223 µM).
Regarding `Clc1cccc2cc3c(nc12)-c1nc2ccccc2n1C3`, 64 µg/mL (≈ 219 µM) was the least that counted as inhibitory in [1] (MIC).
For the molecule `c1ccc2nc3c(cc2c1)Cn1c-3nc2ccccc21`, the MIC in series [2] amounted to 0.25 µg/mL (≈ 0.972 µM); in series [3], 2 µg/mL (≈ 7.77 µM); in [4], 2 µg/mL (≈ 7.77 µM); in [5] it was 0.25 µg/mL (≈ 0.972 µM); in series [6], 1 µg/mL (≈ 3.89 µM); in [7] it was 0.25 µg/mL (≈ 0.972 µM). In addition, the minimal inhibitory concentration (MIC) in series [8] is 1 µg/mL (≈ 3.89 µM); in series [9] it was 0.5 µg/mL (≈ 1.94 µM); in series [10], 0.5 µg/mL (≈ 1.94 µM); in series [12], 0.5 µg/mL (≈ 1.94 µM); in series [13] it was 0.5 µg/mL (≈ 1.94 µM); in series [14], 0.5 µg/mL (≈ 1.94 µM). Besides, the minimal inhibitory concentration (MIC) in [15] turned out to be 1 µg/mL (≈ 3.89 µM); in [18], 1 µg/mL (≈ 3.89 µM); in [19], 0.5 µg/mL (≈ 1.94 µM); in series [20], 0.5 µg/mL (≈ 1.94 µM); in series [21], 2 µg/mL (≈ 7.77 µM); in series [22], 0.0625 µg/mL (≈ 0.243 µM). Moreover, the minimal inhibitory concentration (MIC) in series [23] stood at 0.5 µg/mL (≈ 1.94 µM); in [24], 0.5 µg/mL (≈ 1.94 µM); in [25] it was 0.5 µg/mL (≈ 1.94 µM); in series [1], 0.5 µg/mL (≈ 1.94 µM); in [28], 0.25 µg/mL (≈ 0.972 µM); in series [29] it was 1 µg/mL (≈ 3.89 µM). Moreover, the minimal inhibitory concentration (MIC) in [30] was determined as 0.0625 µg/mL (≈ 0.243 µM); in [31], 0.0625 µg/mL (≈ 0.243 µM); in series [32] it was 0.5 µg/mL (≈ 1.94 µM). In addition, the Activity result in series [11] is on record as “Non-Toxic”; in series [16] it was 25%; in [17], 60%; in series [26], 40%; in series [27], 25%.
In series [1], `Brc1cccc2cc3c(nc12)-c1nc2ccccc2n1C3` returned a minimal inhibitory concentration (MIC) above 64 µg/mL.
Same read-out and setting: the value for `COc1ccc2cc3c(nc2c1)-c1nc2ccccc2n1C3` was above 64 µg/mL; that for `Cc1cccc2cc3c(nc12)-c1nc2ccccc2n1C3` was 16 µg/mL (≈ 59 µM).
The molecule `COc1ccc2nc3c(cc2c1)Cn1c-3nc2ccccc21` came in with an MIC in series [1] of 16 µg/mL (≈ 55.7 µM).
On the same count and under the same terms, the value for `Cc1ccc2nc3c(cc2c1)Cn1c-3nc2ccccc21` was 32 µg/mL (≈ 118 µM).
`OC(Cn1cncn1)(Cn1cncn1)c1ccc(F)cc1F` [FLUCONAZOLE]: the MIC in series [2] came to 0.5 µg/mL (≈ 1.63 µM); in [3], 2 µg/mL (≈ 6.53 µM); in [4], 2 µg/mL (≈ 6.53 µM); in [5], 2 µg/mL (≈ 6.53 µM); in [6], 2 µg/mL (≈ 6.53 µM); in series [7], 0.5 µg/mL (≈ 1.63 µM). The MIC in [8] is 1 µg/mL (≈ 3.27 µM); in [9] it was 2 µg/mL (≈ 6.53 µM); in [10], 1 µg/mL (≈ 3.27 µM); in [12], above 64 µg/mL; in series [13] it was 0.25 µg/mL (≈ 0.816 µM); in [14] it was 4 µg/mL (≈ 13.1 µM). In addition, the MIC in series [15] is 0.25 µg/mL (≈ 0.816 µM); in series [18], 1 µg/mL (≈ 3.27 µM); in [19], above 64 µg/mL; in [20], 0.5 µg/mL (≈ 1.63 µM); in series [21], 4 µg/mL (≈ 13.1 µM); in [22], 2 µg/mL (≈ 6.53 µM). Besides, the MIC in series [23] is above 64 µg/mL; in series [24] it was 16 µg/mL (≈ 52.2 µM); in [25] it was 1 µg/mL (≈ 3.27 µM); in [28], above 64 µg/mL; in series [29] it was 1 µg/mL (≈ 3.27 µM); in [30], 2 µg/mL (≈ 6.53 µM). Moreover, the MIC was 0.5 µg/mL (≈ 1.63 µM) in series [31] and above 64 µg/mL in [32]. The values for the Activity in [17] and in [27] were 40% and 25%, respectively.
Turning to `Cc1ccc2cc3c(nc2c1)-c1nc2ccccc2n1C3`, in series [1], inhibition of growth (MIC) required 32 µg/mL (≈ 118 µM).

The values above are taken from ChEMBL document CHEMBL4422645, “Benzimidazole tethered pyrrolo[3,4-b]quinoline with broad-spectrum activity against fungal pathogens” (Bioorg Med Chem Lett, 2019).
